Here are results for 6 compounds from patent US10231954B2, “Neurodegenerative therapies” (LYTIX BIOPHARMA AS, priority 2014, dated 2019).

The structures appear in SMILES notation. Like-named read-outs stand apart in the source and are kept apart here.

Assay type in all cases: biochemical
One assay has as its target CDK2-Cyclin A (Homo sapiens, UniProt P24941). Put plainly: Kinase profiling CDK2-Cyclin A. To be noted: for remaining activity at 100 µM: read-out: residual kinase activity, CDK2-Cyclin A. An excerpt:
(§1) Any value less that 25 is considered to be highly significant inhibition.

The target in a further assay is T1, TLK1 (Homo sapiens, UniProt Q9UKI8).
T1 sequence (Q9UKI8 1-766): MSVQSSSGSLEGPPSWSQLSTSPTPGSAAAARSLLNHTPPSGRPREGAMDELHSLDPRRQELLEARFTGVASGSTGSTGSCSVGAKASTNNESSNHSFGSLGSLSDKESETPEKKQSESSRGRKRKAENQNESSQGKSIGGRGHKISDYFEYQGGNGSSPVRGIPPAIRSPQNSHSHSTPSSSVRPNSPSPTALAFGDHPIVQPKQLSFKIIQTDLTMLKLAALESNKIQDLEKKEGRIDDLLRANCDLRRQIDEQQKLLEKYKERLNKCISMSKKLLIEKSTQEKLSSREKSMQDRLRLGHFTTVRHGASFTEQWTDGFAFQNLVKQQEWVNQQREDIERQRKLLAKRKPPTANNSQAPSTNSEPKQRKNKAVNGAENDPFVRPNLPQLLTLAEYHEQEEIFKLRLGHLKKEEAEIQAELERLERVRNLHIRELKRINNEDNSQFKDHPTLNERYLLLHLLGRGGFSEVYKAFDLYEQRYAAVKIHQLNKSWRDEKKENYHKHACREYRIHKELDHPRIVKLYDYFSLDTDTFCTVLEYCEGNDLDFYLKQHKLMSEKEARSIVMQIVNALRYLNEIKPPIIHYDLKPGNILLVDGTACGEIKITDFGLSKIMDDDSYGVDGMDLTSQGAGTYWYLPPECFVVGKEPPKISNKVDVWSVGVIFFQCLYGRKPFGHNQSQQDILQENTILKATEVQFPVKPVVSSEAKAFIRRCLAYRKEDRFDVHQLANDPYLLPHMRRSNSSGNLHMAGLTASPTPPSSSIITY
Put plainly: Kinase profiling TLK1. To be noted: for remaining activity at 100 µM: read-out: residual kinase activity, TLK1.
Excerpt: as §1

In another assay the target is T2, NUAK1 (Homo sapiens, UniProt O60285).
T2 sequence (O60285 1-661): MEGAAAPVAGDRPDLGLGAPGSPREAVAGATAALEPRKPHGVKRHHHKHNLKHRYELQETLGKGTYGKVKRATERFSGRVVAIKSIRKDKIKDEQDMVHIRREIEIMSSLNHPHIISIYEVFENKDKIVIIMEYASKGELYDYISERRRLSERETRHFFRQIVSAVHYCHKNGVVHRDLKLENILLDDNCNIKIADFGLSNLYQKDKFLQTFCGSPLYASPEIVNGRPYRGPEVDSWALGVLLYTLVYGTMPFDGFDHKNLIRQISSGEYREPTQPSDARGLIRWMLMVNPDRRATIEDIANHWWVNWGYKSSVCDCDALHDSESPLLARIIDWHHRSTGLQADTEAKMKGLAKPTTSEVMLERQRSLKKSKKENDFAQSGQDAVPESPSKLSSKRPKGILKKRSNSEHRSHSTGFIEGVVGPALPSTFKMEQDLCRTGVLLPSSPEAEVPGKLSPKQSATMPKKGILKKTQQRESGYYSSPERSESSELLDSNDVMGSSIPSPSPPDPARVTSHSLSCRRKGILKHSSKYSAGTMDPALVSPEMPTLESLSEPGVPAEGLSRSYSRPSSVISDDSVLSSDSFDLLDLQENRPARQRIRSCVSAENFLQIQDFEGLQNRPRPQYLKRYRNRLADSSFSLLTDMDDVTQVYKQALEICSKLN
Put plainly: Kinase profiling NUAK1. To be noted: for remaining activity at 100 µM: read-out: residual kinase activity, NUAK1.
Excerpt: as §1

For a further assay, the target named is PIM2 (Homo sapiens, UniProt Q9P1W9). Put plainly: Kinase profiling PIM2. The settings on record: for remaining activity at 100 µM: read-out: residual kinase activity, PIM2.
Excerpt: as §1

The target in another assay is PAK6 (Homo sapiens, UniProt Q9NQU5). Put plainly: Kinase profiling PAK6. To be noted: for remaining activity at 100 µM: read-out: residual kinase activity, PAK6.
Excerpt: as §1

In a further assay the target is MST3 (Homo sapiens, UniProt Q9Y6E0). Put plainly: Kinase profiling MST3. To be noted: for remaining activity at 100 µM: read-out: residual kinase activity, MST3.
Excerpt: as §1

Another assay concerns the target MST4 (Homo sapiens, UniProt Q9P289). Briefly: Kinase profiling MST4. The settings on record: for remaining activity at 100 µM: read-out: residual kinase activity, MST4.
Excerpt: as §1

The next assay concerns the target ABL (Homo sapiens, UniProt P00519). Put plainly: Kinase profiling ABL. To be noted: for remaining activity at 100 µM: read-out: residual kinase activity, ABL.
Excerpt: as §1

For a further assay, the target named is EPH-A4 (Homo sapiens, UniProt P54764). Put plainly: Kinase profiling EPH-A4. To be noted: for remaining activity at 100 µM: read-out: residual kinase activity, EPH-A4.
Excerpt: as §1

The target of a further assay is T3, DDR2 (Homo sapiens, UniProt Q16832).
T3 sequence (Q16832 22-855): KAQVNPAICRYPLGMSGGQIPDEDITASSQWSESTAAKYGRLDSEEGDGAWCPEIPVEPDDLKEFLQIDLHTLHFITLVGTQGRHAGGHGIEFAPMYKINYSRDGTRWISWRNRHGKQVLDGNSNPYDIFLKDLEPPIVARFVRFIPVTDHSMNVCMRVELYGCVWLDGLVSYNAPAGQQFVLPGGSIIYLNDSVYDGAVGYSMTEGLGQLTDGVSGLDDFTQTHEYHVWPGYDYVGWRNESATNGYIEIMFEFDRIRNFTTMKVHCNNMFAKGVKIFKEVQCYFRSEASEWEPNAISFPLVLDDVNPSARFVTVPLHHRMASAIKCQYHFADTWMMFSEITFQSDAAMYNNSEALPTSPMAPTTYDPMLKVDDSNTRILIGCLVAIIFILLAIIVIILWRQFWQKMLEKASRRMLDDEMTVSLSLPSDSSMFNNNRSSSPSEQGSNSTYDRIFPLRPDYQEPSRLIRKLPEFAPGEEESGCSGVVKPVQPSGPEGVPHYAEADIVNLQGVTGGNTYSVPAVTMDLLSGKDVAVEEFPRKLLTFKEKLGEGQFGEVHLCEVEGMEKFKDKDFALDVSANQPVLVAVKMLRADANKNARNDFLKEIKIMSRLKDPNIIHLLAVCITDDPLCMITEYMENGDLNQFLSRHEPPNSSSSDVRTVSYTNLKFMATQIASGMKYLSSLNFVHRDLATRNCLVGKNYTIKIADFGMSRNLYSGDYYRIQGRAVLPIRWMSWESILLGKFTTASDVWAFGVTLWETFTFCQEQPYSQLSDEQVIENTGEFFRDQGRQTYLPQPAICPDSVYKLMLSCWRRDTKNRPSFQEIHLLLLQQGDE
Put plainly: Kinase profiling DDR2. To be noted: for remaining activity at 100 µM: read-out: residual kinase activity, DDR2.
Excerpt: as §1

For a further assay, the target named is TTBK2 (Homo sapiens, UniProt Q6IQ55). Put plainly: Kinase profiling TTBK2. To be noted: for remaining activity at 100 µM: read-out: residual kinase activity, TTBK2.
Excerpt: as §1

A further assay deals with MAP4K5 (Homo sapiens, UniProt Q9Y4K4). Briefly: Kinase profiling MAP4K5. The settings on record: for remaining activity at 100 µM: read-out: residual kinase activity, MAP4K5.
Excerpt: as §1

Where [1] appears, read: 100 micromolar inhibitor concentration, 100 is no change.
The mark [2] stands for this setting: 100 micromolar inhibitor, 100 = no change.

Chain of ABL (P00519 whole entry, species assumed): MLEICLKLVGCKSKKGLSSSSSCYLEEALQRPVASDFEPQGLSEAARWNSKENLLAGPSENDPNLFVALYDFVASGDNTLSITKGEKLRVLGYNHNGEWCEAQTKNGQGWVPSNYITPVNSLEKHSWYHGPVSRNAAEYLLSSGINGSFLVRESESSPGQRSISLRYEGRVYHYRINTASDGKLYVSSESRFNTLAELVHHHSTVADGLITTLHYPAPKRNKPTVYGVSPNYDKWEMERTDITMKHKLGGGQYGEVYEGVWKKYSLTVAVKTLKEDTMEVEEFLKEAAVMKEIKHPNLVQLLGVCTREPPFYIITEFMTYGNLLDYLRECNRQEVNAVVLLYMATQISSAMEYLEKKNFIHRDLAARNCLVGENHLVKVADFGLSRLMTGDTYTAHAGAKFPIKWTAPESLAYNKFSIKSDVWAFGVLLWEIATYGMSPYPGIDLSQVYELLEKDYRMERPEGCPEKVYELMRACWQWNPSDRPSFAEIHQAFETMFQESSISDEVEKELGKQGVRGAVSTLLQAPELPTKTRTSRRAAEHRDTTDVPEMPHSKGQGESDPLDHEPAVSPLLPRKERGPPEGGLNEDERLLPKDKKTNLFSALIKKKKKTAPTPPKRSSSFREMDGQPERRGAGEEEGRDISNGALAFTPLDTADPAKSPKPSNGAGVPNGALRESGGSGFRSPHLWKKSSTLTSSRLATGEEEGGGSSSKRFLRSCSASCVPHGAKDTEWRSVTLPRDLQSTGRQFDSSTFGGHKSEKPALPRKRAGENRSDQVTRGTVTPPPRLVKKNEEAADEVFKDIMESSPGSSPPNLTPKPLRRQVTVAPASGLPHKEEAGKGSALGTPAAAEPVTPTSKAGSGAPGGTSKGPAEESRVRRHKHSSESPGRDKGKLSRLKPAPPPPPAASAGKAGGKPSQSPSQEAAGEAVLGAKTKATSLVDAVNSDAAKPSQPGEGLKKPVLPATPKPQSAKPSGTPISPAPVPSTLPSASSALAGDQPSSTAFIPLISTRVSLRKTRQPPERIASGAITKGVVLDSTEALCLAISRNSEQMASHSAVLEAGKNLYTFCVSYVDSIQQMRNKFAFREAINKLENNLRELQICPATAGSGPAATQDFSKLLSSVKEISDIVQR
Chain of MST4 (Q9P289 whole entry, species assumed): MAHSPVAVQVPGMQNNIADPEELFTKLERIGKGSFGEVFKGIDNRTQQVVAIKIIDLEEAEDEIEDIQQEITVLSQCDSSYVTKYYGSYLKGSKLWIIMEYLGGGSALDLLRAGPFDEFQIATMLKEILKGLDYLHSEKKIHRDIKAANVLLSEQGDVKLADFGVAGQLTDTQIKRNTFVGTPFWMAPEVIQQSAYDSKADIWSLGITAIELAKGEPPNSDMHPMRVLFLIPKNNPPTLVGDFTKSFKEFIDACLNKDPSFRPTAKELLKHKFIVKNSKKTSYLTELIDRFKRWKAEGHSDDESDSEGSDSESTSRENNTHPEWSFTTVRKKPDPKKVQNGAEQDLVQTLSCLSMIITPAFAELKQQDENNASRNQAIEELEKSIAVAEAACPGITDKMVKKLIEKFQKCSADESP
Chain of TTBK2 (Q6IQ55 whole entry, species assumed): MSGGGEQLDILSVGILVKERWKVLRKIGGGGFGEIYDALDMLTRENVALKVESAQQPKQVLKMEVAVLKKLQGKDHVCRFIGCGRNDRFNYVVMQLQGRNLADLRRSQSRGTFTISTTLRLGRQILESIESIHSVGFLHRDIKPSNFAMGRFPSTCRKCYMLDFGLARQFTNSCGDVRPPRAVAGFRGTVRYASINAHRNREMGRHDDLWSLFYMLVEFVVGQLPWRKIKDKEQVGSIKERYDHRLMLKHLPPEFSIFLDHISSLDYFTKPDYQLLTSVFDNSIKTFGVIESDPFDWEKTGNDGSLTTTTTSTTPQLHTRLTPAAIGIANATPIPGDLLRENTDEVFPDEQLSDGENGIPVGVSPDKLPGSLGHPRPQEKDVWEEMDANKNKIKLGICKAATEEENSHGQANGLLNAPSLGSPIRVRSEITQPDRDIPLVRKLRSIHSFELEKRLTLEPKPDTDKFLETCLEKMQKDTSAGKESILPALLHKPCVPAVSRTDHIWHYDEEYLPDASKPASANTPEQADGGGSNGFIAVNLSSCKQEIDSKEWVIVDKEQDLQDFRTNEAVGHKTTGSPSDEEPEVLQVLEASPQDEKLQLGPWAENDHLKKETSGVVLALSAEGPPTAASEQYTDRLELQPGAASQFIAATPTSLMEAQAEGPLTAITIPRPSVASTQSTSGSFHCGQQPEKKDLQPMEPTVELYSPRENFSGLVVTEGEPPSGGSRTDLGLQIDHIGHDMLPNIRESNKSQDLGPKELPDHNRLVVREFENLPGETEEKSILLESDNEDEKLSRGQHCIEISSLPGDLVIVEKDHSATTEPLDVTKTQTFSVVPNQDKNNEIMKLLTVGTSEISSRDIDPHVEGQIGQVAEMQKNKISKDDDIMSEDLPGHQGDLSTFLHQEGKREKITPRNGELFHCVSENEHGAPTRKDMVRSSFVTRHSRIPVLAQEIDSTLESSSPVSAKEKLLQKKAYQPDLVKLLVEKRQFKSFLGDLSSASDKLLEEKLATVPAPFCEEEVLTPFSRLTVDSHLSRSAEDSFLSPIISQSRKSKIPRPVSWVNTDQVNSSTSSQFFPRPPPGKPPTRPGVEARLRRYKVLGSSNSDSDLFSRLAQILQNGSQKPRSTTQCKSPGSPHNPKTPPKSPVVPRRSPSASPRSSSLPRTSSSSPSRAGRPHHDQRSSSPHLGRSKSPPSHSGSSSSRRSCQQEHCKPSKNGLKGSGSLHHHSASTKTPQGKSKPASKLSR
Chain of PAK6 (Q9NQU5 whole entry, species assumed): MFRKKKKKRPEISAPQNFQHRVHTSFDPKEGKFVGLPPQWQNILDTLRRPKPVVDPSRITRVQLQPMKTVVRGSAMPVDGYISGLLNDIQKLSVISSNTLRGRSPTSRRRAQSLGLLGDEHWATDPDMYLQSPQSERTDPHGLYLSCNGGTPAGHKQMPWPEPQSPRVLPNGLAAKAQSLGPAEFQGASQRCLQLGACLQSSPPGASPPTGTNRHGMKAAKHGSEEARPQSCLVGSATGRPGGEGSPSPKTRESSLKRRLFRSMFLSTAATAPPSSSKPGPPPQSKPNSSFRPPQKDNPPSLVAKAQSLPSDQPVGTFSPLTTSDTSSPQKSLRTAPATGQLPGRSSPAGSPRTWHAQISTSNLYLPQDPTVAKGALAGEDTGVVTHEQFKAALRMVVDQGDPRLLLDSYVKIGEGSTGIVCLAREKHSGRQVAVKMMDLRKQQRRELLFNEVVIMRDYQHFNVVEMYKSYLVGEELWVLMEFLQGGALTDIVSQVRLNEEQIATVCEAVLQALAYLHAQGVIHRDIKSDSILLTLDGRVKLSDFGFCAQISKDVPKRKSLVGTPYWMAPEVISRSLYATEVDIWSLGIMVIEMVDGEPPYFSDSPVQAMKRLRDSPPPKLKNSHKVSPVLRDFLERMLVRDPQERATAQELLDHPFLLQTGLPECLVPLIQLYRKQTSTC
Chain of MST3 (Q9Y6E0 whole entry, species assumed): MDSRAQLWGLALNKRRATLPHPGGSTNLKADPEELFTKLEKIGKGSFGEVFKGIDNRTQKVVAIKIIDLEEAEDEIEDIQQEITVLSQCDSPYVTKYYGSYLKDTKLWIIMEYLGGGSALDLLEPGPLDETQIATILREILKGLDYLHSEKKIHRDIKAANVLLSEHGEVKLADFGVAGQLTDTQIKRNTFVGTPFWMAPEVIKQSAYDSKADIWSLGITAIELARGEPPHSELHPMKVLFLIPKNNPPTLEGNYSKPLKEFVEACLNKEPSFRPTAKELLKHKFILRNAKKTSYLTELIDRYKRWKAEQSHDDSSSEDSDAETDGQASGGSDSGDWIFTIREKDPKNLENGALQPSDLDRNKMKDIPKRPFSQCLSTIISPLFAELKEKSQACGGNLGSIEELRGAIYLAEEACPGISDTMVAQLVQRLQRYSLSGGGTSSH
Chain of MAP4K5 (Q9Y4K4 whole entry, species assumed): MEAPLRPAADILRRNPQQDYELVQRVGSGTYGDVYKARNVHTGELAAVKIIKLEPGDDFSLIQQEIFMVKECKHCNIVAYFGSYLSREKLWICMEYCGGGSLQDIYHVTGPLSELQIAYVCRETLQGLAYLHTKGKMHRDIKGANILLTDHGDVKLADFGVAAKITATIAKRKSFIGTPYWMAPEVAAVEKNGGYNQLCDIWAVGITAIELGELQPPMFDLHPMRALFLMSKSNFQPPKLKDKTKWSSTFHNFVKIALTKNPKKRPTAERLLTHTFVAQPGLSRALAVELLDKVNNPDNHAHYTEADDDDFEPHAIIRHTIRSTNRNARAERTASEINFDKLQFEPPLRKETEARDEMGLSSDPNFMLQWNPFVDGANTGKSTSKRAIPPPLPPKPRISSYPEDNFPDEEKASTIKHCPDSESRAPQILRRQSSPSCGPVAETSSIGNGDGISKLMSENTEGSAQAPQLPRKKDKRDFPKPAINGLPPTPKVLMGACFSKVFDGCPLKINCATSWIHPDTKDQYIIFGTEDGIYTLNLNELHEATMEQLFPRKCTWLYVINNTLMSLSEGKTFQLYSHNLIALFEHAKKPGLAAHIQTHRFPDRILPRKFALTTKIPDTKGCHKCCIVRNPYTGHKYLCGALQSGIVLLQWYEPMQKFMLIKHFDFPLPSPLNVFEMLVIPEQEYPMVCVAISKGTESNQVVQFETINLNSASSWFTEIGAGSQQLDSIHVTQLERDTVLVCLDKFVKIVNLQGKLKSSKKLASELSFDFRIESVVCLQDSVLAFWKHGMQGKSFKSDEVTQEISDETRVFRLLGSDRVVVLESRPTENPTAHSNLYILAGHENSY
Chain of PIM2 (Q9P1W9 whole entry, species assumed): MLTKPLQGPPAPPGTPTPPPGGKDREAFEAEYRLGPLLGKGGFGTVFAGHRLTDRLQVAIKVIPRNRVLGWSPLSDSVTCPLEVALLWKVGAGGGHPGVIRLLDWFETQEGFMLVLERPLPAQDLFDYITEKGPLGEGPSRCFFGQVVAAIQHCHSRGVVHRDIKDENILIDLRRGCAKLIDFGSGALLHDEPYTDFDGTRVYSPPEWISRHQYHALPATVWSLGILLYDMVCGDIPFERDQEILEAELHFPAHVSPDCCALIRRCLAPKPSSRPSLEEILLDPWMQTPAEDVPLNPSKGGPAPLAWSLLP

For the compound `CC(=O)Nc1nc2cc(O)ccc2s1` [Compound 01-66, N-(5-hydroxybenzo[d]thiazol-2-yl)acetamide], the remaining activity at 100 µM at CDK2-Cyclin A is 71%; on TLK1, 92%; on NUAK1 it was 44%; at PIM2 it was 16%; at PAK6 it was 90%; on MST3, 79%. Besides, the remaining activity at 100 µM on MST4 is 84%; at ABL it was 29%; at EPH-A4, 73%; at DDR2, 65%.

`CC(=O)Nc1nc2ccc(O)cc2s1` [Compound 01-71]: the remaining activity at 100 µM on CDK2-Cyclin A (setting [1]) was 30%; at TLK1 (setting [1]), 45%; at NUAK1 (setting [1]), 26%; at PIM2 (setting [1]), 38%; on PAK6 (setting [1]), 81%; on MST3 (setting [1]), 66%. For the same compound, the remaining activity at 100 µM at MST4 (setting [1]) came to 70%; on ABL (setting [1]), 17%; at EPH-A4 (setting [1]) it was 77%; on DDR2 (setting [1]), 56%.

Take `CC(=O)Nc1nc2ccc(C(F)(F)F)cc2s1` [Compound 01-90]: the remaining activity at 100 µM on CDK2-Cyclin A (setting [1]) stood at 22%; at TLK1 (setting [1]) it was 82%; at NUAK1 (setting [1]), 66%; at TTBK2 (setting [1]), 98%; at PIM2 (setting [1]) it was 94%; on PAK6 (setting [1]), 106%. The remaining activity at 100 µM was 85% at MST3 (setting [1]); 89% at MST4 (setting [1]); 40% on MAP4K5 (setting [1]); 31% at ABL (setting [1]); 45% on EPH-A4 (setting [1]); 62% at DDR2 (setting [1]).

In the case of `CC(=O)Nc1nc2ccc(C#N)cc2s1` [Compound 01-94], the remaining activity at 100 µM at CDK2-Cyclin A (setting [1]) is 11%; at TLK1 (setting [1]) it was 53%; on NUAK1 (setting [1]) it was 46%; on TTBK2 (setting [1]), 78%; on PIM2 (setting [1]), 73%; on PAK6 (setting [1]), 92%. In addition, the remaining activity at 100 µM on MST3 (setting [1]) was determined as 71%; on MST4 (setting [1]), 75%; at MAP4K5 (setting [1]), 38%; on ABL (setting [1]) it was 31%; on EPH-A4 (setting [1]) it was 62%; at DDR2 (setting [1]) it was 93%.

Turning to `CC(=O)Nc1cccc(NC(=O)c2nc3ccc(O)cc3s2)c1` [Compound 03-07, N-(3-acetamidophenyl)-6-hydroxybenzo[d]thiazole-2-carboxamide], the remaining activity at 100 µM is 99% at CDK2-Cyclin A (setting [2]); 108% on TLK1 (setting [2]); 37% at NUAK1 (setting [2]); 71% on TTBK2 (setting [2]); 61% at PIM2 (setting [2]); 106% on PAK6 (setting [2]). For the same compound, the remaining activity at 100 µM on MST3 (setting [2]) came out at 85%; at MST4 (setting [2]), 76%; on MAP4K5 (setting [2]) it was 56%; on ABL (setting [2]), 105%; at EPH-A4 (setting [2]), 95%; at DDR2 (setting [2]) it was 90%.

Take `O=C(Nc1nc2cc(O)ccc2s1)c1ccncc1` [Compound 03-11]: the “residual kinase activity, CDK2-Cyclin A” value at CDK2-Cyclin A (setting [1]) is listed as 98. The “residual kinase activity, TLK1” value on TLK1 (setting [1]) was 95. Also, on NUAK1 (setting [1]), the “residual kinase activity, NUAK1” value was found to be 86. Moreover, the “residual kinase activity, TTBK2” value on TTBK2 (setting [1]) stood at 99. Also, the “residual kinase activity, PIM2” value at PIM2 (setting [1]) is given as 89. Also, at PAK6 (setting [1]), the “residual kinase activity, PAK6” value was 90. Also, the “residual kinase activity, MST3” value on MST3 (setting [1]) stood at 92. In addition, the “residual kinase activity, MST4” value at MST4 (setting [1]) is given as 134. On MAP4K5 (setting [1]), the “residual kinase activity, MAP4K5” value was determined as 92. The “residual kinase activity, ABL” value at ABL (setting [1]) was found to be 99. Also, the “residual kinase activity, EPH-A4” value on EPH-A4 (setting [1]) is 91. Also, the “residual kinase activity, DDR2” value on DDR2 (setting [1]) is listed as 115.
